The source of these data is patent US6329377A, “Ketomethylene group-containing cysteine and serine protease inhibitors” (Cephalon, Inc., priority 2000, dated 2001).

The IC50 is the concentration needed to halve the response being measured. Lower therefore signals greater potency in that assay.

Common to all, as to format: biochemical
Test [1] has as its target T1, Calpain I (Homo sapiens, UniProt P07384).
T1 construct: made in house
T1 sequence (P07384 1-714): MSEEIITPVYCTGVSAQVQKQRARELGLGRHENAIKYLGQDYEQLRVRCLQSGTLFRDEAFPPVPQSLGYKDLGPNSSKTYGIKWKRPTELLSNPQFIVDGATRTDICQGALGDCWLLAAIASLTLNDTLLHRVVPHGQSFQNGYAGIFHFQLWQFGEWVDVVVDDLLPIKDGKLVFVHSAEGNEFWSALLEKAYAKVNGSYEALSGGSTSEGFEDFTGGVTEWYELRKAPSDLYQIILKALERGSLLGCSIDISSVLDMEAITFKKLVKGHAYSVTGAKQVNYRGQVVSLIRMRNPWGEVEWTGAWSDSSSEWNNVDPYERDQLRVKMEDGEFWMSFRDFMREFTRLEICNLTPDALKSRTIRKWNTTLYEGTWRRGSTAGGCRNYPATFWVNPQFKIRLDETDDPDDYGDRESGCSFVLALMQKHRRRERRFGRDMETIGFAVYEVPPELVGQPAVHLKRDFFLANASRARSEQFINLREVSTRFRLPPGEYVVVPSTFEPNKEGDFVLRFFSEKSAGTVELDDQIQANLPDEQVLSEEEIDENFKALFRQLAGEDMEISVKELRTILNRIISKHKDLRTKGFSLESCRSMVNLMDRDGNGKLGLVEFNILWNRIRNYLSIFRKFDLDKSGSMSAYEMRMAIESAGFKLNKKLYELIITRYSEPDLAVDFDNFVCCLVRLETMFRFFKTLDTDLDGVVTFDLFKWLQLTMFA
T1 sequence (P04632 1-268 partner): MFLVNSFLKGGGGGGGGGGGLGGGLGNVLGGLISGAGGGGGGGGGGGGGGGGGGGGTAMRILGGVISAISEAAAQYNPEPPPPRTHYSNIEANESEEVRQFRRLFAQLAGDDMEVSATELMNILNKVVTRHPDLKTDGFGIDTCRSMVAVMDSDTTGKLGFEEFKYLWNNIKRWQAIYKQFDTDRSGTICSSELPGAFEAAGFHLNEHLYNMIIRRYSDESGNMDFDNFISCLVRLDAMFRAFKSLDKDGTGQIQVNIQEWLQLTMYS
Description: Rate of inactivation of calpain I (second order rate constant). The settings on record: pH 7.5, pseudo-first order conditions, read-out: Calpain Inactivation Rates. The procedure: (§1) To evaluate inhibitory activity, stock solutions (40 times concentrated) of each compound to be tested were prepared in 100% anhydrous DMSO and 5 μL of each inhibitor preparation were aliquoted into each of three wells of a 96-well plate. Calpain I, prepared by a modification of the method of W. J. Lee et al. (Biochem. Internatl. 22: 163-171 (1990)), was diluted into assay buffer (i.e., 50 mM Tris, 50 mM NaCl, 1 mM EDTA, 1 mM EGTA, and 5 mM-mercaptoethanol, pH 7.5 including 0.2 mM Succ-Leu-Tyr-MNA) and 175 μL aliquoted into the same wells containing the independent inhibitor stocks as well as to positive control wells containing 5 μL DMSO, but no compound. To start the reaction, 20 μL of 50 mM CaCl2 in assay buffer was added to all wells of the plate, excepting three, which were used as background signal baseline controls. Substrate hydrolysis was monitored every 5 minutes for a total of 30 minutes using a Fluoroskan II fluorescence plate reader. Substrate hydrolysis in the absence of inhibitor was linear for up to 15 minutes.
Inhibition of calpain I activity was calculated as the percent decrease in the rate of substrate (S) hydrolysis in the presence of inhibitor (I) relative to the rate in its absence (o). Comparison between the inhibited and control rates was made within the linear range for substrate hydrolysis. For screening, compounds were tested at 10 μM. Compounds having 50% inhibition at 10 μM were considered active. […] The results were plotted as % inhibition versus log inhibitor concentration and the IC50 was calculated from linear regression of the data. Apparent second order rate constants were determined from analysis of reaction progress curves under pseudo-first order conditions. Each determination represents the means of three or more independent single cuvette analyses continually monitored via a Perkin-Elmer LS50B spectrofluorimeter. […]
where y is the product formed at time t. […] The apparent second order rate constant kapp was determined as Kobs /[I]. […]

The target of a further test is T2, thrombin (Homo sapiens, UniProt P00734).
T2 construct: purchased Sigma Chem. Co. T-7009
Description: Inhibition of thrombin. As to conditions: 25 μM Bz-Phe-Val-Arg-AMC, pH 7.5, read-out: Thrombin % I @ 10 uM. On the procedure: as §1
(§2) Inhibition of calpain I activity was calculated as the percent decrease in the rate of substrate (S) hydrolysis in the presence of inhibitor (I) relative to the rate in its absence (o). Comparison between the inhibited and control rates was made within the linear range for substrate hydrolysis. For screening, compounds were tested at 10 μM. Compounds having 50% inhibition at 10 μM were considered active. The IC50s of inhibitors (concentration yielding 50% inhibition) were determined from the percent decrease in the rates of substrate hydrolysis in the presence of five to seven different concentrations of the test compound. The results were plotted as % inhibition versus log inhibitor concentration and the IC50 was calculated from linear regression of the data. Apparent second order rate constants were determined from analysis of reaction progress curves under pseudo-first order conditions. Each determination represents the means of three or more independent single cuvette analyses continually monitored via a Perkin-Elmer LS50B spectrofluorimeter. The rate of inhibition of hydrolysis was obtained by fitting the curve to the exponential equation (1):
(§3) Additionally, because α-chymotrypsin is not a calcium sensitive enzyme and is constitutively active, following addition of inhibitor stocks to the 96 well plates, 100 μl of a 2-fold concentrated stock of enzyme in dilution buffer was first added and the reaction started by addition of 100 μl of a 2-fold concentrated stock of substrate in assay buffer. Substrate hydrolysis was monitored every 5 minutes up to 30 minutes using a Fluoroskan II ([…]).
Inhibition of thrombin (Sigma Chem. Co. Cat. #T-7009) was evaluated as described for chymotrypsin except that the assay was performed in 50 mM Tris, 10 mM CaCl2, pH 7.5 and the substrate was 25 μM Bz-Phe-Val-Arg-AMC (Bachem cat#I-1080).

A further test addresses T3, α-chymotrypsin (Bos taurus, UniProt P00766).
T3 construct: purchased Sigma Chem. Co. C-3142
Description: Inhibition of α-chymotrypsin. As to conditions: pH 7.5, 10 μM, 0.03 mM Succ-Ala-Ala-Pro-Phe-AMC, read-out: Chymotrypsin % I @. On the procedure:
as §1, §2, §3

The target of test [2] is T1, Calpain I. Description: Inhibition of calpain I activity (IC50, fluorescence plate reader). As to conditions: substrate 0.2 mM Succ-Leu-Tyr-MNA, pH 7.5. On the procedure:
as §1
as §2, with “(1): […]” for “(1):”

A further test addresses T4, cathepsin B (Homo sapiens, UniProt P07858).
T4 construct: purchased Calbiochem 219364
Description: Inhibition of cathepsin B. The settings on record: pH 6, 1 uM, Cbz-Phe-Arg-AMC 0.1 mM, read-out: Cat B % I @ 1 uM.

In a further test the target is T5, cathepsin L (Homo sapiens, UniProt P07711).
T5 construct: purchased Calbiochem 219402
Description: Inhibition of cathepsin L. As to conditions: pH 6, 1 uM, Cbz-Phe-Arg-AMC 0.006 mM, read-out: Cat L % I @ 1 uM.

T5 sequence (P07711 114-288 limits assumed): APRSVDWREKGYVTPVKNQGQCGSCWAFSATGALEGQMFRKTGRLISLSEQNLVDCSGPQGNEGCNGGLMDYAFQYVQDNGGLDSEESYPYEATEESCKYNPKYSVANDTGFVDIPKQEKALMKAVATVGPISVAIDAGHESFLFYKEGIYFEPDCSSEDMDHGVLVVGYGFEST
T5 sequence (P07711 292-333 limits assumed): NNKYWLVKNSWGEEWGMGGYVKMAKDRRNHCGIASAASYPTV

Take `CCC(C(=O)CC(CC(C)C)C(=O)NC(Cc1ccccc1)C(=O)CF)c1ccccc1` (centres unmarked) [Compound 14a, CH3 CH2 CH(Ph)COCH2 CH(iBu)CO-Phe-CH2 F]: the kinact/KI at Calpain I [1] was determined as 5800 M⁻¹ s⁻¹. The inhibition at 10 µM at thrombin amounted to 0%; at α-chymotrypsin it was 33%.

As to `CC(C)CC(CC(=O)C1c2ccccc2Oc2ccccc21)C(=O)NC(Cc1ccccc1)C(=O)CF` (racemic) [Compound 14b, Xanthene-COCH2 CH(iBu)CO-Phe-CH2 F], the kinact/KI on Calpain I [1] was 75600 M⁻¹ s⁻¹. Also, the inhibition at 10 µM at thrombin amounted to 9%; at α-chymotrypsin, 98%.

As to `CC(C)CC(CC(=O)[C@H](CC(C)C)NC(=O)OCc1ccccc1)C(=O)NC(Cc1ccccc1)C(=O)CF` (some centres unmarked) [Compound 14c, Z-Leu-CH2 CH(iBu)CO-Phe-CH2 F], the kinact/KI at Calpain I [1] is 16800 M⁻¹ s⁻¹. Moreover, the results for the inhibition at 10 µM at thrombin and on α-chymotrypsin were 0% and 82%, respectively.

For the molecule `CCNC(=O)C(=O)C(CC)NC(=O)C(CC(=O)CCCCc1ccccc1)CC(C)C` (centres unmarked) [Compound 8a, Ph(CH2)4 COCH2 CH(iBu)CO-Abu-CONHEt], at Calpain I [2], the IC50 is 8.44 µM. Further, the inhibition at 1 µM is 10% at cathepsin B and 81% at cathepsin L. The inhibition at 10 µM on thrombin and at α-chymotrypsin was 0% each time.
